Results taken from US11261186B2, “Biaryl derivative as GPR120 agonist” (LG CHEM, LTD., priority 2014, dated 2022).

target: T1, hGPR120 (Homo sapiens, UniProt Q5NUL3); test: Measurement of Activity of GPR120 Agonist (Cell-Based Assay), Calcium 5 dye fluorescence; details: CHO-K1 cells expressing Ga16 and hGPR120
T1 construct: expressed in transfected cells; host or cells: CHO-K1
T1 sequence (Q5NUL3 1-361): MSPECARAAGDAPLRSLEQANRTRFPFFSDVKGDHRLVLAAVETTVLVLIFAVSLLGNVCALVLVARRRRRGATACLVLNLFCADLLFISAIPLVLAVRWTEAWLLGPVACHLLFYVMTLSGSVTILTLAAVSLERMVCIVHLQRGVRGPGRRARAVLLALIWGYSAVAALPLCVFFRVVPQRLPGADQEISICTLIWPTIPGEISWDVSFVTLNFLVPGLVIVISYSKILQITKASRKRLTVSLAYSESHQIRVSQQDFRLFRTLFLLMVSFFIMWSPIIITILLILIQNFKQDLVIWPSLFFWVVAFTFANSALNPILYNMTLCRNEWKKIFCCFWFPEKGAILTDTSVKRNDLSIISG
Summary of the method: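 Agonist-evoked calcium signal, expressed as percent relative to DMSO-only wells, read at 485/525 nm after serial-dilution addition (0.5% DMSO final). Cells were hGPR120/Gα16 CHO-K1, seeded 18 h earlier and dye-loaded for 1 h at 37°C.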

First: CC(C)Sc1ncccc1-c1cc(F)c(N2CC[C@@H](CC(=O)O)C2)c(F)c1 [Example 136, 2-[(3S)-1-[2,6-difluoro-4-(2-isopropylsulfanyl-3-pyridyl)phenyl]pyrrolidin-3-yl]acetic acid]
Second: CC(C)Sc1ncccc1-c1ccc(N2CCC(CC(=O)O)CC2)c(F)c1 [Example 138, 2-[1-[2-fluoro-4-(2-isopropylsulfanyl-3-pyridyl)phenyl]-4-piperidyl]acetic acid]
The EC50 of the first is lower: < 200 nM for the first, 200 to 2000 nM for the second. The first is the more potent here.

First: O=C(O)C[C@@H]1CCN(c2c(F)cc(-c3cccnc3OC3CCCC3)cc2F)C1 [Example 137, 2-[(3S)-1-[4-[2-(cyclopentoxy)-3-pyridyl]-2,6-difluoro-phenyl]pyrrolidin-3-yl]acetic acid]
Second: O=C(O)CC1CCN(c2ccc(-c3cccnc3OC3CCCC3)cc2F)CC1 [Example 139, 2-[1-[4-[2-(cyclopentoxy)-3-pyridyl]-2-fluoro-phenyl]-4-piperidyl]acetic acid]
The EC50 of the first is lower: < 200 nM for the first, 200 to 2000 nM for the second.

First: CC(C)Sc1cccc(-c2ccc3cc(CCC(=O)O)ccc3c2)n1 [Example 140, 3-[6-(6-isopropylsulfanyl-pyridin-2-yl)-naphthalen-2-yl]-propanoic acid]
Second: O=C(O)CCc1ccc2cc(-c3cccc(SC4CCCC4)n3)ccc2c1 [Example 143, 3-[6-(6-cyclopentylsulfanyl-pyridin-2-yl)-naphthalen-2-yl]-propanoic acid]
The EC50 of the first is lower: 200 to 2000 nM for the first, 2000 to 20000 nM for the second. The first is the more potent here.

First: O=C(O)CCc1ccc2cc(-c3cccc(Oc4ccccc4)n3)ccc2c1 [Example 141, 3-[6-(6-phenoxy-pyridin-2-yl)-naphthalen-2-yl]-propanoic acid]
Second: O=C(O)CCc1ccc2cc(-c3cccc(Oc4ccccc4F)n3)ccc2c1 [Example 152, 3-{6-[6-(2-fluoro-phenoxy)-pyridin-2-yl]-naphthalen-2-yl}-propanoic acid]
The EC50 of the first is lower: < 200 nM for the first, 200 to 2000 nM for the second. The first is the more potent here.

Compared with `O=C(O)CCc1ccc2cc(-c3ccccc3Oc3ccccc3)ccc2c1` [Example 142, 3-[6-(2-phenoxy-phenyl)-naphthalen-2-yl]-propanoic acid], `O=C(O)CCc1ccc2cc(-c3ccccc3Oc3ccccc3F)ccc2c1` [Example 151, 3-{6-[2-(2-fluoro-phenoxy)-phenyl]-naphthalen-2-yl}-propanoic acid] is higher in EC50: 200 to 2000 nM for the first, 2000 to 20000 nM for the second. The first is the more potent here.

`O=C(O)CCc1ccc2cc(-c3cccnc3Oc3ccccc3)ccc2c1` [Example 144, 3-[6-(2-phenoxy-pyridin-3-yl)-naphthalen-2-yl]-propanoic acid] and `CC(C)Oc1ncccc1-c1ccc2cc(CCC(=O)O)ccc2c1` [Example 149, 3-[6-(2-isopropoxy-pyridin-3-yl)-naphthalen-2-yl]-propanoic acid] cannot be ordered by EC50: < 200 nM for the first, < 200 nM for the second.

First: CC(C)Oc1cccc(-c2ccc3cc(CCC(=O)O)ccc3c2)c1 [Example 146, 3-[6-(3-isopropoxy-phenyl)-naphthalen-2-yl]-propanoic acid]
Second: O=C(O)CCc1ccc2cc(-c3cccc(OC4CCC4)c3)ccc2c1 [Example 147, 3-[6-(3-cyclobutoxy-phenyl)-naphthalen-2-yl]-propanoic acid]
The EC50 of the first is higher: 200 to 2000 nM for the first, < 200 nM for the second. The second is the more potent here.

First: O=C(O)CCc1ccc2cc(-c3cccc(OC4CCC4)n3)ccc2c1 [Example 148, 3-[6-(6-cyclobutoxy-pyridin-2-yl)-naphthalen-2-yl]-propanoic acid]
Second: O=C(O)CCc1ccc2cc(-c3cccnc3OC3CCCC3)ccc2c1 [Example 150, 3-[6-(2-cyclopentyloxy-pyridin-3-yl)-naphthalen-2-yl]-propanoic acid]
The EC50 of the first is higher: 200 to 2000 nM for the first, < 200 nM for the second. The second is the more potent here.

`O=C(O)CCCSc1c(F)cc(-c2cccc3c2OC(F)(F)O3)cc1F` [Example 153, 4-[4-(2,2-difluoro-benzo[1,3]dioxol-4-yl)-2,6-difluoro-phenylsulfanyl]-butyric acid] and `CC(CCCC(=O)O)c1c(F)cc(-c2cccc3c2OC(F)(F)O3)cc1F` (centres unmarked) [Example 171, 5-[4-(2,2-difluoro-benzo[1,3]dioxol-4-yl)-2,6-difluoro-phenyl]-hexanoic acid] cannot be ordered by EC50: < 200 nM for the first, < 200 nM for the second.

`O=C(O)CCCSc1ccc(-c2cccc3c2OC(F)(F)O3)cc1F` [Example 154, 4-[4-(2,2-difluoro-benzo[1,3]dioxol-4-yl)-2-fluoro-phenylsulfanyl]-butyric acid] and `O=C(O)CCCSc1ccc(-c2cccc3c2OC(F)(F)O3)cc1` [Example 155, 4-[4-(2,2-difluoro-benzo[1,3]dioxol-4-yl)-phenylsulfanyl]-butyric acid] cannot be ordered by EC50: < 200 nM for the first, < 200 nM for the second.

First: O=C(O)CCCSc1ccc(-c2cccc3c2OC2(CCCC2)O3)cc1 [Example 156, 4-(4-spiro[1,3-benzodioxol-2,1′-cyclopentane]-4-ylphenyl)sulfanylbutanoic acid]
Second: O=C(O)CCCSc1ccc(-c2cccc3c2OC2(CCCC2)O3)cc1F [Example 157, 4-(2-fluoro-4-spiro[1,3-benzodioxol-2,1′-cyclopentan]-4-yl-phenyl)sulfanylbutanoic acid]
The EC50 of the first is higher: 200 to 2000 nM for the first, < 200 nM for the second. The second is the more potent here.

Compared with `CC(C)Oc1ncccc1-c1ccc(C(C)(C)CCCC(=O)O)cc1` [Example 158, 5-[4-(2-isopropoxy-pyridin-3-yl)-phenyl]-5-methyl-hexanoic acid], `CC(C)Sc1ncccc1-c1ccc(C(C)(C)CCCC(=O)O)cc1` [Example 159, 5-[4-(2-isopropylsulfanyl-pyridin-3-yl)-phenyl]-5-methyl-hexanoic acid] is lower in EC50: 200 to 2000 nM for the first, < 200 nM for the second. The second is the more potent here.

`CC(C)(CCCC(=O)O)c1ccc(-c2cccnc2OC2CCCC2)cc1` [Example 160, 5-[4-(2-cyclopentyloxy-pyridin-3-yl)-phenyl]-5-methyl-hexanoic acid] and `O=C(O)CCCC(F)(F)c1ccc(-c2cccnc2OC2CCCC2)cc1` [Example 177, 5-[4-(2-cyclopentyloxy-pyridin-3-yl)-phenyl]-5,5-difluoro-pentanoic acid] cannot be ordered by EC50: < 200 nM for the first, < 200 nM for the second.

`CC(C)(CCCC(=O)O)c1ccc(-c2cccnc2OC2CCCC2)cc1F` [Example 161, 5-[4-(2-cyclopentyloxy-pyridin-3-yl)-2-fluoro-phenyl]-5-methyl-hexanoic acid] and `CC(C)(CCCC(=O)O)c1c(F)cc(-c2cccnc2OC2CCCC2)cc1F` [Example 162, 5-[4-(2-cyclopentyloxy-pyridin-3-yl)-2,6-difluoro-phenyl]-5-methyl-hexanoic acid] fall in the same range of EC50: 200 to 2000 nM for the first, 200 to 2000 nM for the second.

Compared with `CC(C)(CCCC(=O)O)c1ccc(-c2cccnc2SC2CCCC2)cc1` [Example 163, 5-[4-(2-cyclopentylsulfanyl-pyridin-3-yl)-phenyl]-5-methyl-hexanoic acid], `CC(C)(CCCC(=O)O)c1ccc(-c2cccnc2SC2CCC2)cc1` [Example 165, 5-[4-(2-cyclobutylsulfanyl-pyridin-3-yl)-phenyl]-5-methyl-hexanoic acid] is lower in EC50: 200 to 2000 nM for the first, < 200 nM for the second.

`CC(C)(CCCC(=O)O)c1c(F)cc(-c2cccnc2SC2CCC2)cc1F` [Example 164, 5-[4-(2-cyclobutylsulfanyl-pyridin-3-yl)-2,6-difluoro-phenyl]-5-methyl-hexanoic acid] and `O=C(O)CCCC1(c2c(F)cc(-c3cccnc3SC3CCC3)cc2F)CC1` [Example 167, 4-{1-[4-(2-cyclobutylsulfanyl-pyridin-3-yl)-2,6-difluoro-phenyl]-cyclopropyl}-butyric acid] fall in the same range of EC50: 200 to 2000 nM for the first, 200 to 2000 nM for the second.

First: O=C(O)CCCC1(c2c(F)cc(-c3cccnc3OC3CCCC3)cc2F)CC1 [Example 166, 4-{1-[4-(2-cyclopentyloxy-pyridin-3-yl)-2,6-difluoro-phenyl]-cyclopropyl}-butyric acid]
Second: O=C(O)CCCC1(c2c(F)cc(-c3cccnc3OCC3CCC3)cc2F)CC1 [Example 169, 4-{1-[4-(2-cyclobutylmethoxy-pyridin-3-yl)-2,6-difluoro-phenyl]-cyclopropyl}-butyric acid]
The EC50 of the first is lower: < 200 nM for the first, 200 to 2000 nM for the second. The first is the more potent here.

`O=C(O)CCCC1(c2c(F)cc(-c3cccc(OC4CCC4)n3)cc2F)CC1` [Example 168, 4-{1-[4-(6-cyclobutoxy-pyridin-2-yl)-2,6-difluoro-phenyl]-cyclopropyl}-butyric acid] and `O=C(O)CCCC1(c2c(F)cc(-c3cccc(OCC4CC4)n3)cc2F)CC1` [Example 170, 4-{1-[4-(6-cyclopropylmethoxy-pyridin-2-yl)-2,6-difluoro-phenyl]-cyclopropyl}-butyric acid] cannot be ordered by EC50: < 200 nM for the first, < 200 nM for the second.

`O=C(O)COCC(F)(F)c1ccc(-c2cccnc2OC2CCCC2)cc1` [Example 172, {2-[4-(2-cyclopentyloxy-pyridin-3-yl)-phenyl]-2,2-difluoro-ethoxy}-acetic acid] and `O=C(O)COCC(F)(F)c1ccc(-c2cccnc2SC2CCC2)cc1` [Example 173, {2-[4-(2-cyclobutylsulfanyl-pyridin-3-yl)-phenyl]-2,2-difluoro-ethoxy}-acetic acid] fall in the same range of EC50: 2000 to 20000 nM for the first, 2000 to 20000 nM for the second.

First: O=C(O)COCC(F)(F)c1ccc(-c2cccc(OC3CCC3)n2)cc1 [Example 174, {2-[4-(6-cyclobutoxy-pyridin-2-yl)-phenyl]-2,2-difluoro-ethoxy}-acetic acid]
Second: O=C(O)CCC1CC1c1c(F)cc(-c2cccnc2OC2CCCC2)cc1F (centres unmarked) [Example 175, 3-{2-[4-(2-cyclopentyloxy-pyridin-3-yl)-2,6-difluoro-phenyl]-cyclopropyl}-propanoic acid]
The EC50 of the first is higher: 200 to 2000 nM for the first, < 200 nM for the second.

For `O=C(O)CCC1CC1c1c(F)cc(-c2cccnc2SC2CCC2)cc1F` (centres unmarked) [Example 176, 3-{2-[4-(2-cyclobutylsulfanyl-pyridin-3-yl)-2,6-difluoro-phenyl]-cyclopropyl}-propanoic acid], the EC50 was < 200 nM.
